Data taken from the supplement of paper PMC9663587.

Assays:
Assay in all cases: GRmax, 72 h; higher = less effect;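 note: breast cell lines in 384-well plates, nine doses across a 10^4 range, Dye Drop imaging of viable cells vs DMSO and time-zero plates, GR 0 means no net growth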
CAL51 = tested on: CAL51
EFM19 = tested on: EFM19
HCC1187 = tested on: HCC1187
HCC1954 = tested on: HCC1954
HCC38 = tested on: HCC38
HS578T = tested on: HS578T
MCF12A = tested on: MCF12A
MDAMB436 = tested on: MDAMB436
MDAMB468 = tested on: MDAMB468
SKBR3 = tested on: SKBR3
UACC812 = tested on: UACC812
ZR7530 = tested on: ZR7530

Row | Compound | GRmax, 72 h (CAL51) [GR] | GRmax, 72 h (EFM19) [GR] | GRmax, 72 h (HCC1187) [GR] | GRmax, 72 h (HCC1954) [GR] | GRmax, 72 h (HCC38) [GR] | GRmax, 72 h (HS578T) [GR] | GRmax, 72 h (MCF12A) [GR] | GRmax, 72 h (MDAMB436) [GR] | GRmax, 72 h (MDAMB468) [GR] | GRmax, 72 h (SKBR3) [GR] | GRmax, 72 h (UACC812) [GR] | GRmax, 72 h (ZR7530) [GR] | GRmax, 72 h (CAL51; main component drawn) [GR] | GRmax, 72 h (HCC1954; main component drawn) [GR] | GRmax, 72 h (HCC38; main component drawn) [GR] | GRmax, 72 h (HS578T; main component drawn) [GR] | GRmax, 72 h (MDAMB436; main component drawn) [GR] | GRmax, 72 h (MDAMB468; main component drawn) [GR] | GRmax, 72 h (SKBR3; main component drawn) [GR]
1 | CS(=O)(=O)N1CCN(Cc2cc3nc(-c4cccc5[nH]ncc45)nc(N4CCOCC4)c3s2)CC1 [Pictilisib/GDC0941] (max 10 µM) | 0.0266 | -0.154 | -0.293 | -0.227 | 0.357 | 0.0345 | 0.331 | 0.285 | -0.0613 | -0.127 | -0.601 | -0.342 |  |  |  |  |  |  | 
2 | O=C1NC(=O)[C@@H](c2cn3c4c(cccc24)CCC3)[C@@H]1c1c[nH]c2ccccc12 [Tivantinib/ARQ197] (max 10 µM) | -0.282 | -0.592 | -0.761 | -0.385 | -0.27 | -0.32 | -0.0779 | -0.271 | -0.455 | -0.352 | -0.84 | -0.539 |  |  |  |  |  |  | 
3 | Cc1c(N)nc([C@H](CC(N)=O)NC[C@H](N)C(N)=O)nc1C(=O)N[C@H](C(=O)N[C@H](C)[C@@H](O)[C@H](C)C(=O)N[C@H](C(=O)NCCc1nc(-c2nc(C(=O)NCCC[S+](C)C)cs2)cs1)[C@@H](C)O)[C@@H](OC1OC(CO)C(O)C(O)C1OC1OC(CO)C(O)C(OC(N)=O)C1O)c1cnc[nH]1 (some centres undefined) [Bleomycin] (max 10 µM) |  |  |  |  |  |  |  |  |  |  |  |  | -0.134 | -0.0884 | -0.232 | -0.197 | -0.12 | -0.21 | 0.187
4 | CO[C@H]1C[C@@H]2CC[C@@H](C)[C@@](O)(O2)C(=O)C(=O)N2CCCC[C@H]2C(=O)O[C@H]([C@H](C)C[C@@H]2CC[C@@H](OCCO)[C@H](OC)C2)CC(=O)[C@H](C)/C=C(\C)[C@@H](O)[C@@H](OC)C(=O)[C@H](C)C[C@H](C)/C=C/C=C/C=C/1C [Everolimus] (max 10 µM) | 0.548 | 0.249 | 0.568 | 0.326 | 0.473 | 0.42 | 0.571 | 0.615 | 0.527 | 0.118 | -0.0713 | 0.169 |  |  |  |  |  |  | 
5 | CN1CC[C@H](c2c(O)cc(O)c3c(=O)cc(-c4ccccc4Cl)oc23)[C@H](O)C1 [Flavopiridol] (max 1 µM) | -0.0935 | -0.21 | -0.885 | -0.526 | -0.448 | -0.256 | -0.15 | -0.0264 | -0.351 | -0.656 | -0.813 | -0.662 |  |  |  |  |  |  | 
6 | CNCc1ccc(-c2[nH]c3cc(F)cc4c3c2CCNC4=O)cc1 [Rucaparib] (max 10 µM) | 0.704 | 0.96 | 0.802 | 0.906 | 0.652 | 0.683 | 0.825 | 0.222 | 0.345 | 0.757 | 0.661 | 0.674 |  |  |  |  |  |  | 
7 | CC[C@@H]1C(=O)N(C)c2cnc(Nc3ccc(C(=O)N[C@H]4CC[C@H](N5CCN(CC6CC6)CC5)CC4)cc3OC)nc2N1C(C)C [Volasertib/BI6727] (max 1 µM) | -0.337 | -0.577 | -0.708 | -0.154 | -0.26 | -0.312 | -0.0126 | -0.179 | -0.449 | -0.349 | -0.496 | -0.42 |  |  |  |  |  |  | 
8 | CC1(N)CCN(c2cnc(-c3cccc(Cl)c3Cl)c(N)n2)CC1 [SHP099] (max 10 µM) | 0.904 | 0.992 | 0.77 | 0.569 | 0.523 | 0.632 | 0.929 | 0.941 | 0.567 | 1.02 | 0.651 | 0.715 |  |  |  |  |  |  | 
9 | CNc1nc(-c2ccc3c(N)n[nH]c3c2)cc(N2C[C@@H](C(=O)NC3CCCCC3)CC[C@H]2C)n1 (max 10 µM) | 0.794 | 0.292 | 0.504 | 0.733 | 0.767 | 0.538 | 0.8 | 0.811 | 0.531 | 0.307 | 0.166 | 0.348 |  |  |  |  |  |  | 
10 | CCc1cncnc1N1CCN(Cc2nc3ccc(C(F)(F)F)cc3[nH]2)CC1 (max 10 µM) | 0.734 | 0.921 | 0.575 | 0.835 | 0.976 | 0.914 | 0.964 | 0.194 | 0.0813 | 0.734 | -0.22 | 0.113 |  |  |  |  |  |  | 
11 | COc1cc2c(Oc3ccc4[nH]c(C)cc4c3F)ncnc2cc1OCCCN1CCCC1 [Cediranib/AZD2171] (max 10 µM) | -0.103 | 0.685 | 0.349 | -0.32 | -0.204 | -0.572 | 0.937 | -0.382 | -0.708 | -0.54 | -0.575 | -0.145 |  |  |  |  |  |  | 
12 | CCc1cnn2c(NCc3ccc[n+]([O-])c3)cc(N3CCCC[C@H]3CCO)nc12 (max 1 µM) | -0.358 | -0.532 | -0.791 | -0.464 | -0.442 | -0.239 | -0.327 | -0.144 | -0.413 | -0.621 | -0.942 | -0.714 |  |  |  |  |  |  | 
13 | COc1cccc(OCCCN)c1-c1cc(Nc2cnc(C#N)cn2)n[nH]1 | 0.0443 | 0.929 | -0.498 | -0.312 | -0.556 | -0.359 | -0.167 | 0.0078 | 0.6 | -0.406 | 0.528 | 0.561 |  |  |  |  |  |  | 
14 | CC(C)n1nc(-c2ccc3oc(N)nc3c2)c2c(N)ncnc21 [INK128/MLN0128] (max 3.162 µM) | 0.0529 | -0.128 | 0.0961 | -0.083 | -0.0087 | -0.0708 | 0.103 | 0.211 | 0.0572 | -0.506 | -0.707 | -0.109 |  |  |  |  |  |  | 
15 | N.N.[Cl][Pt][Cl] [Cisplatin] (max 10 µM) | -0.0329 |  |  | -0.0741 | -0.103 | 0.0125 |  | -0.0204 | -0.287 | 0.249 |  |  |  |  |  |  |  |  | 
16 | Nc1cc(C(F)(F)F)c(-c2cc(N3CCOCC3)nc(N3CCOCC3)n2)cn1 [Buparlisib/NVP-BKM120] (max 10 µM) | -0.388 | -0.356 | -0.608 | -0.458 | -0.276 | -0.343 | -0.113 | -0.287 | -0.516 | -0.373 | -0.822 | -0.408 |  |  |  |  |  |  | 
17 | COc1cc2nccc(Oc3ccc(NC(=O)C4(C(=O)Nc5ccc(F)cc5)CC4)cc3)c2cc1OC [Cabozantinib] (max 10 µM) | 0.306 | 0.668 | 0.222 | 0.639 | 0.301 | 0.215 | 0.96 | 0.0862 | 0.423 | 0.442 | 0.298 | 0.449 |  |  |  |  |  |  | 
